The target of test [1] is T1, N-type calcium channel α1B+SFVG (Homo sapiens, UniProt Q00975, INS1237SFVG).
T1 construct: expressed in transfected cells; host or cells: Xenopus oocytes
The test is described as follows: Transient expression and recording from Xenopus oocytes, calcium channel modulation. The note with it: transient expression. It counts as cell-based. As for the experimental part:
Representative compounds of the formulae herein are screened for activity against […] in an assay essentially as described in J. Neurosci., Aug. 15, 2001, 21(16):5944-5951, W. Xu and D. Lipscombe, using transient expression and recording from Xenopus oocytes. The assay is performed using various calcium channels (e.g., N-type calcium channel α1B+SFVG) whereby the modulation of the calcium channel is measured for each compound.
The following IC50 data were obtained for compounds 1 and 2, following the above-referenced protocols (see Table 1).

The target in test [2] is N-type calcium channel α1B+SFVG (Homo sapiens, UniProt Q00975). The test is described as follows: Calcium channel modulation in HEK298 cells. In kind it is cell-based.
N-type calcium channel α1B+SFVG (Homo sapiens, UniProt Q00975), sequence (Q00975 whole entry): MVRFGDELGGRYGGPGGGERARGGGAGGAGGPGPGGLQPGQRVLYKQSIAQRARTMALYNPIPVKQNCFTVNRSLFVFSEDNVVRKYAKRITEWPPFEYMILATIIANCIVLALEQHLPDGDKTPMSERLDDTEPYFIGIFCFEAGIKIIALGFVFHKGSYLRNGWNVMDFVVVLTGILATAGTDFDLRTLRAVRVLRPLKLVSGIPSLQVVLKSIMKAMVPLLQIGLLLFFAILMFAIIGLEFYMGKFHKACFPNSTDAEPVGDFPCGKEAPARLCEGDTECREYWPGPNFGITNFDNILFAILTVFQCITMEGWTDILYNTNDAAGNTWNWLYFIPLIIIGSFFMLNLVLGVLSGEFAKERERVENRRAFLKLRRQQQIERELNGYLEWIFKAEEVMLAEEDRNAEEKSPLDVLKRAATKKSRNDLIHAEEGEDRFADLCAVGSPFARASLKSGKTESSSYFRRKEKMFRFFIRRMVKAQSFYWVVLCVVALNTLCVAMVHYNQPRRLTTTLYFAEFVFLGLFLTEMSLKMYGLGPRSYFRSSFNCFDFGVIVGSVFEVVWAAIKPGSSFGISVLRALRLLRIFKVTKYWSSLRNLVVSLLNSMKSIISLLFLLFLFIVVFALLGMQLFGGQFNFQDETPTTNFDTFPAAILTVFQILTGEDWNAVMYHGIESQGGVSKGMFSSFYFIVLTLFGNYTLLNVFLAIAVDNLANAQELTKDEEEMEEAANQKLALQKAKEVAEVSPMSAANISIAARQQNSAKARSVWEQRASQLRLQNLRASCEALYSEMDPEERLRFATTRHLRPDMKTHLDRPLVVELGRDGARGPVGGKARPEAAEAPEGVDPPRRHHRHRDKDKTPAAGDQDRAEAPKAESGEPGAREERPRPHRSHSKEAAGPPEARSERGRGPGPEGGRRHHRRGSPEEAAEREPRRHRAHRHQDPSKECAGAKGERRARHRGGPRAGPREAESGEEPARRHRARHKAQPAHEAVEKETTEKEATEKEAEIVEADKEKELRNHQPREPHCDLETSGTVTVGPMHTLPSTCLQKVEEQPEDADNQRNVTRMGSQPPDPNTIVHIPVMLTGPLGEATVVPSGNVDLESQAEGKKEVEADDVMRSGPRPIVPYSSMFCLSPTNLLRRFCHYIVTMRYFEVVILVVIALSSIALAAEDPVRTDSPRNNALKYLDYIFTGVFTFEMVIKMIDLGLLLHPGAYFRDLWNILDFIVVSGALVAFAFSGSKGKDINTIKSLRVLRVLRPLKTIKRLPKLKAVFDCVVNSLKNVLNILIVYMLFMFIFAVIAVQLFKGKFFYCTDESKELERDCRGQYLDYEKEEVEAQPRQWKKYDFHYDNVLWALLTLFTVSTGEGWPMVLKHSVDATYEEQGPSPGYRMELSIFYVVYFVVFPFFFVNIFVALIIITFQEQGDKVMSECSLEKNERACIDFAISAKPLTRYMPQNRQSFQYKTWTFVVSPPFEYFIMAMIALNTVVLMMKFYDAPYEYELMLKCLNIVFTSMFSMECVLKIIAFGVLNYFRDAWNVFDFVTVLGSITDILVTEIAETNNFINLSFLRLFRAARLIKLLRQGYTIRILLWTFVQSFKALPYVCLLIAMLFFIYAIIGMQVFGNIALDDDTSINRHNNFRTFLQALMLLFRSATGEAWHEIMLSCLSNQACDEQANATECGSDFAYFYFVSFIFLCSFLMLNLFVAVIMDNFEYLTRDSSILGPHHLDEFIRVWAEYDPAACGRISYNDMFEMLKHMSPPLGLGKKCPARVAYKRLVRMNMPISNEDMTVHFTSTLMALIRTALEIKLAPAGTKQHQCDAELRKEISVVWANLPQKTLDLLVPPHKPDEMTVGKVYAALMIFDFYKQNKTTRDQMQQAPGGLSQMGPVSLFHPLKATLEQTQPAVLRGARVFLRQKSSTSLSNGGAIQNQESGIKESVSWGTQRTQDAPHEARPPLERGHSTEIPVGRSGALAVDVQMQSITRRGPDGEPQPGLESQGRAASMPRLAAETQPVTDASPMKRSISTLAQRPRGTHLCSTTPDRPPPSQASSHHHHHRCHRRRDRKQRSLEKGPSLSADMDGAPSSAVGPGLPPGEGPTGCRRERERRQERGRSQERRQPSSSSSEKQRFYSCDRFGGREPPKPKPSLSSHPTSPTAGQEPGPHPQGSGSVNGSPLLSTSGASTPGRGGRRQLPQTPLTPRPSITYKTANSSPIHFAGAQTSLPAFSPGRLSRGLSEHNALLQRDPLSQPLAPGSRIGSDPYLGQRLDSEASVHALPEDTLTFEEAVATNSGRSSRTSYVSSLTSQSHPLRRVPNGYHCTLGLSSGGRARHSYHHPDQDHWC

T1 sequence (Q00975 with tags, fused parts or gaps INS1237SFVG): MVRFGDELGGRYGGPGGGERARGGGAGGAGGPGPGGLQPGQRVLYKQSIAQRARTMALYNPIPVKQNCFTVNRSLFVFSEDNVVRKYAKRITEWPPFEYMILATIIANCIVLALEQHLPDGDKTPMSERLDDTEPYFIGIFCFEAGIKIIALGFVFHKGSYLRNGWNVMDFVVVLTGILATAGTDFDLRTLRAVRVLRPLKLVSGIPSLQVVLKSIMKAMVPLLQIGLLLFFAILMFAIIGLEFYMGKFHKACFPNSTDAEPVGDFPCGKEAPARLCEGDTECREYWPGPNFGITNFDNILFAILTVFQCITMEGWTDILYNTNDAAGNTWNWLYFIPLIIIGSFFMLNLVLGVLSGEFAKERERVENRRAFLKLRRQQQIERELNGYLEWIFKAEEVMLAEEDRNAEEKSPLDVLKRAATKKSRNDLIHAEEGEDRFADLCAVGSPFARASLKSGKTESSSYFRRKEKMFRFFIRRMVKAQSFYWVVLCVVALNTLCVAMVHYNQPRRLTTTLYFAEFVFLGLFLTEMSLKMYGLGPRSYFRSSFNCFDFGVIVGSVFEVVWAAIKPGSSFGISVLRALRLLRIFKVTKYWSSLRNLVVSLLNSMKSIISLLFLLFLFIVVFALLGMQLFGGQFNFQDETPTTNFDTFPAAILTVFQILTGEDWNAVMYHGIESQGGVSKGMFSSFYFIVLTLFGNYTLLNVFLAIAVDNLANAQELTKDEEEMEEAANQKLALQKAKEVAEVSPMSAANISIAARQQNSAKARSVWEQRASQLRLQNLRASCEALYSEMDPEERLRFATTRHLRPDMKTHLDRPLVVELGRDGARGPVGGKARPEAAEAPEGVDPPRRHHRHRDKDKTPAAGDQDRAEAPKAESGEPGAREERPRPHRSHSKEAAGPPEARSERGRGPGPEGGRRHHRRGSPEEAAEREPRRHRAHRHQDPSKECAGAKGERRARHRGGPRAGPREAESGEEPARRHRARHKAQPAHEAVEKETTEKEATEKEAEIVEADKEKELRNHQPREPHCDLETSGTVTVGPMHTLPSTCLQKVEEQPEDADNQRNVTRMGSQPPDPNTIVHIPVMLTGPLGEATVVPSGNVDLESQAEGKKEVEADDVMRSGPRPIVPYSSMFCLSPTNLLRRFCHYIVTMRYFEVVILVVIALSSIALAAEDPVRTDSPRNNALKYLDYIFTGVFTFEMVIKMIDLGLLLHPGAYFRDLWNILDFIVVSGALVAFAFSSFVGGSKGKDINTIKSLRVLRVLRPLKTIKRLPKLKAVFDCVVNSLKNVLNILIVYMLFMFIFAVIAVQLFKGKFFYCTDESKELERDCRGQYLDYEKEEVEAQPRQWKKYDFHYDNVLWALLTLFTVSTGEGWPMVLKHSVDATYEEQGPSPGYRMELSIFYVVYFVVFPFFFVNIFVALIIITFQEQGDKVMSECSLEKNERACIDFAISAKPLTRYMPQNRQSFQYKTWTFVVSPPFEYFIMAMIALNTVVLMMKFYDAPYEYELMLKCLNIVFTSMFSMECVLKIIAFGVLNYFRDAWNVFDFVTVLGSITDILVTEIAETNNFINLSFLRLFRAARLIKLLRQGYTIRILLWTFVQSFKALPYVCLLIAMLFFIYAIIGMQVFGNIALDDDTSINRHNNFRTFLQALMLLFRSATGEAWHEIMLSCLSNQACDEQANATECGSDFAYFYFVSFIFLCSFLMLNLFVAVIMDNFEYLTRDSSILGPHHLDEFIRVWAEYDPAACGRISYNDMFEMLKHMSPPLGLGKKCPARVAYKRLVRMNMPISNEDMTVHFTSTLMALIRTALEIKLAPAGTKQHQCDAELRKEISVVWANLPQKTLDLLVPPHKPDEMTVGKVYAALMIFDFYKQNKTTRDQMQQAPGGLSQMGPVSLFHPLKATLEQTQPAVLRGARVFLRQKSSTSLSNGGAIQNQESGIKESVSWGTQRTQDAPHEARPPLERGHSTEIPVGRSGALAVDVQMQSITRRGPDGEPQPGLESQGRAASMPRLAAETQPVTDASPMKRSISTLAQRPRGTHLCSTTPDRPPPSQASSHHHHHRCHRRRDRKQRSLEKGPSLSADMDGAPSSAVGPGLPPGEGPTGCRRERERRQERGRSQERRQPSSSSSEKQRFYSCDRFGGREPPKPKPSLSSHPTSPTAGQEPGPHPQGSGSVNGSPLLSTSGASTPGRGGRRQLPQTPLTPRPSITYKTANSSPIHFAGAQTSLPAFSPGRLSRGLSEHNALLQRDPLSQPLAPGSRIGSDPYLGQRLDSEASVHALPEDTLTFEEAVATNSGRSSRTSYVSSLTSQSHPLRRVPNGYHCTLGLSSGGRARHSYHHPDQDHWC

With `COc1cc(CN2CCN(CCCCCC(c3ccc(F)cc3)c3ccc(F)cc3)CC2)cc(OC)c1OC` [Compound 1], the figures for the IC50 in test [1] and in test [2] were 7.13 µM and 0.19 µM, respectively.

`O=C(CCCCC(c1ccccc1)c1ccccc1)N1CCC(NCc2ccccc2)CC1` [Compound 2]: the IC50 (usually the concentration that inhibits the measured activity by half) in test [1] is 4.16 µM.

The values are drawn from patent US20090012095A1, “HUMAN N-TYPE CALCIUM CHANNEL BLOCKERS” (Wyeth, priority 2002, published 2009).
